Columns and labels:
Experiment in all cases: relative viability (nuclei count vs DMSO), 5 days (fraction); higher = more cells survive
[1] = compound: C[C@@H](N)c1ccc(C(=O)Nc2ccnc3[nH]ccc23)cc1 + C[C@]1(O)C[C@@H](c2nc(-c3ccc4ccc(-c5ccccc5)nc4c3)c3c(N)nccn32)C1 [Linsitinib] (partner 1 µM)
Procedure, shortened: (§1)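 Relative viability is defined as nuclei in treated wells over nuclei in vehicle wells. Duplicate plates were run and medians reported. Lung cancer cell lines in 1536-well plates were dosed by pin tool one day after seeding, with one drug or with a fixed anchor-drug dose plus five library-drug doses (not always all listed) in √10 steps, and nuclei were counted after 5 days.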

[2] = compound: C[C@@H](N)c1ccc(C(=O)Nc2ccnc3[nH]ccc23)cc1 + O=C(CCCCCCC(=O)Nc1ccccc1)NO [Vorinostat] (partner 1 µM)
Procedure, shortened: as §1

Tanzisertib + Linsitinib = compound: O[C@H]1CC[C@H](Nc2ncc3nc(Nc4c(F)cc(F)cc4F)n([C@H]4CCOC4)c3n2)CC1 [Tanzisertib] + C[C@]1(O)C[C@@H](c2nc(-c3ccc4ccc(-c5ccccc5)nc4c3)c3c(N)nccn32)C1 [Linsitinib] (partner 1 µM)
Procedure, shortened: as §1

[3] = compound: C[C@@H](N)c1ccc(C(=O)Nc2ccnc3[nH]ccc23)cc1 + CC(=O)c1c(C)c2cnc(Nc3ccc(N4CCNCC4)cn3)nc2n(C2CCCC2)c1=O [Palbociclib] (partner 0.5 µM)
Procedure, shortened: as §1

| Cell Line | relative viability ([1]; first compound 0.04 µM) | relative viability ([1]; first compound 0.1265 µM) | relative viability ([1]; first compound 0.4 µM) | relative viability ([1]; first compound 1.265 µM) | relative viability ([1]; first compound 4 µM) | relative viability ([2]; first compound 0.04 µM) | relative viability ([2]; first compound 0.1265 µM) | relative viability ([2]; first compound 0.4 µM) | relative viability ([2]; first compound 1.265 µM) | relative viability ([2]; first compound 4 µM) | relative viability (Tanzisertib + Linsitinib; first compound 0.08 µM) | relative viability (Tanzisertib + Linsitinib; first compound 0.253 µM) | relative viability (Tanzisertib + Linsitinib; first compound 0.8 µM) | relative viability (Tanzisertib + Linsitinib; first compound 2.53 µM) | relative viability (Tanzisertib + Linsitinib; first compound 8 µM) | relative viability ([3]; first compound 0.04 µM) | relative viability ([3]; first compound 0.1265 µM) | relative viability ([3]; first compound 0.4 µM) | relative viability ([3]; first compound 1.265 µM) | relative viability ([3]; first compound 4 µM) |
| --- | --- | --- | --- | --- | --- | --- | --- | --- | --- | --- | --- | --- | --- | --- | --- | --- | --- | --- | --- | --- |
| IA-LM | 0.801 | 0.665 | 0.847 | 0.904 | 0.759 | 1.23 | 0.835 | 1.33 | 1.37 | 1.23 | 0.793 | 0.552 | 0.589 | 0.712 | 0.768 | – | – | – | – | – |
| NCI-H322M | 1.02 | 1.12 | 0.93 | – | 1.1 | 1.21 | 1.04 | 1.11 | 1.05 | 1.39 | 1 | 0.891 | 0.795 | 0.88 | 1.02 | 0.534 | 0.584 | 0.526 | 0.515 | 0.524 |
| NCI-H1792 | 0.631 | 0.475 | 0.558 | 0.676 | 0.572 | – | – | – | – | – | 0.552 | 0.562 | 0.623 | 0.497 | 0.478 | 0.685 | 0.698 | 0.699 | 0.771 | 0.627 |
| LXF-289 | 1.02 | 0.995 | 0.997 | 1.09 | 0.88 | 0.742 | 0.794 | 0.816 | 0.876 | 0.836 | 1.04 | 0.916 | 1.04 | 0.995 | 1.04 | 0.613 | 0.611 | 0.565 | 0.61 | 0.512 |
| HCC-827 | 0.972 | 0.94 | 0.911 | 0.925 | 0.843 | – | 0.813 | 1.04 | 0.972 | 0.701 | 0.919 | 0.915 | 0.907 | 0.954 | 0.746 | – | 0.442 | 0.478 | 0.476 | 0.433 |
